Assay results taken from the OligoGym collection.
After the bases stand the sugars from the 5' end (letter, count) and the backbone: PS all phosphorothioate, else s phosphorothioate and o phosphodiester by linkage. Methylation of C is not given here. l = locked nucleic acid (LNA); d = 2'-deoxy (DNA)

Target: SNHG14
Details: ASO
[1] = Mouse Primary Neuronal Cell, 0.005 µM

Sequence | target mRNA inhibition (Human Neuronal Cell, 0.2 µM) | target mRNA inhibition (Human Neuronal Cell, 1 µM) | target mRNA inhibition (Human Neuronal Cell, 7.5 µM) | other results
CCAGACTCCAATATTT (sugars l4 d10 l2, PS) | 55% | 39% | – | –
CCAGCATATTATATAC (sugars l3 d10 l3, PS) | 27% | 23% | – | –
CCATCTAATGATTATT (sugars l4 d10 l2, PS) | 26% | 21% | – | –
CCATTCAATGATCACT (sugars l2 d10 l4, PS) | 52% | 45% | – | –
CCATTTATTTCCATTTATTT (sugars lddlldldddddddddddll, PS) | – | – | 40% | –
CCTACATCTCATACTT (sugars l2 d12 l2, PS) | -3% | -3% | – | target mRNA inhibition (Human Neuronal Cell, 5 µM): 11%
CCTACATCTCATACTTGC (sugars l2 d14 l2, PS) | 4% | 21% | – | target mRNA inhibition (Human Neuronal Cell, 5 µM): 25%; target mRNA inhibition [1]: 92.2%
CCTATGTTAATACTTTC (sugars l4 d11 l2, PS) | 35% | 47% | – | –
CCTTCCCTTTGATAAC (sugars l3 d11 l2, PS) | 28% | 55% | – | –
CCTTTAGCATTTCTATT (sugars l2 d11 l4, PS) | 38% | 59% | – | –
CCTTTCATTAACATTTA (sugars l3 d11 l3, PS) | 46% | 52% | – | –
CTACAAATTCAATTTACT (sugars l2 d12 l4, PS) | 3% | 10% | – | –
CTACATCTCATACTTGC (sugars l2 d12 l3, PS) | – | – | – | target mRNA inhibition [1]: 97%
CTACTAAACATACACAT (sugars l3 d11 l3, PS) | 34% | 45% | – | –
CTATGTTAATACTTTC (sugars l4 d10 l2, PS) | 26% | 31% | – | –
CTCAAAGATCATTCTCA (sugars l1 d1 l3 d8 l4, PS) | – | – | 66% | –
CTCATACTTGCTTTAAT (sugars l4 d11 l2, PS) | 7% | 13% | – | target mRNA inhibition (Human Neuronal Cell, 5 µM): 26%; target mRNA inhibition [1]: 96.4%
CTCATCCCTCCAAGAAA (sugars l2 d13 l2, PS) | 5% | -16% | – | target mRNA inhibition (Human Neuronal Cell, 5 µM): -5%; target mRNA inhibition [1]: 88.8%
CTCCAACATAGATCCT (sugars l3 d10 l3, PS) | 44% | 54% | – | –
CTCTCCTCAAGATCAA (sugars l3 d10 l3, PS) | 37% | 49% | – | –
CTGTTTATACCCTTTCCA (sugars l1 d1 l1 d13 l2, PS) | – | – | 50% | –
CTGTTTATACCCTTTCCA (sugars l1 d2 l1 d12 l2, PS) | – | – | 56% | –

Sequence | target mRNA inhibition (Human Neuronal Cell, 0.2 µM) | target mRNA inhibition (Human Neuronal Cell, 1 µM) | target mRNA inhibition (Human Neuronal Cell, 7.5 µM) | other results
CTTCCCTTTGATAACAT (sugars l3 d11 l3, PS) | 20% | 43% | – | –
CTTTAATGCTTCTAACT (sugars l4 d11 l2, PS) | 28% | 55% | – | –
CTTTCCATTTATTTCCATT (sugars ldddddddddddldldlll, PS) | – | – | 66% | –
CTTTCCATTTATTTCCATTT (sugars ldddldldddddddddddll, PS) | – | – | 53% | –
GAATTTCAACTACTAT (sugars l2 d10 l4, PS) | 34% | 45% | – | –
GATCATTCTCAACAATT (sugars l1 d1 l3 d7 l5, PS) | – | – | 22% | –
GATCATTCTCAACAATT (sugars l2 d1 l2 d7 l5, PS) | – | – | 25% | –
GATCATTCTCAACAATT (sugars l5 d7 l1 d2 l2, PS) | – | – | 34% | –
GATCATTCTCAACAATTA (sugars l2 d1 l2 d10 l3, PS) | – | – | 57% | –
GATCATTCTCAACAATTA (sugars l2 d3 l1 d6 l6, PS) | – | – | 33% | –
GATCATTCTCAACAATTA (sugars llddllddddddllddll, PS) | – | – | 49% | –
GATCATTCTCAACAATTAA (sugars lddlldddddddlddllll, PS) | – | – | 55% | –
GATCATTCTCAACAATTAA (sugars lldddlddddddlldllll, PS) | – | – | 39% | –
GATCATTCTCAACAATTAA (sugars lllllddddddddldldll, PS) | – | – | 5% | –
GCAACATTATTAACCACCT (sugars lddddlddddddldddlll, PS) | – | – | 42% | –
GCAACATTATTAACCACCT (sugars ldlddddddddddddldll, PS) | – | – | 58% | –
GCAACATTATTAACCACCT (sugars lldddlddddddlddddll, PS) | – | – | 45% | –
GCACATTCTTTCTATAC (sugars l2 d2 l1 d9 l3, PS) | – | – | 62% | –
GCACATTCTTTCTATAC (sugars l2 d9 l1 d3 l2, PS) | – | – | 48% | –
GCACATTCTTTCTATAC (sugars l3 d11 l3, PS) | 39% | 59% | – | –
GCACATTCTTTCTATAC (sugars ldlldddddddlddlll, PS) | – | – | 51% | –
GCACATTCTTTCTATAC (sugars ldlllddddddllddll, PS) | – | – | 34% | –

Sequence | target mRNA inhibition (Human Neuronal Cell, 0.2 µM) | target mRNA inhibition (Human Neuronal Cell, 1 µM) | target mRNA inhibition (Human Neuronal Cell, 7.5 µM) | other results
GCACATTCTTTCTATACCT (sugars l1 d3 l1 d12 l2, PS) | – | – | 48% | –
GCATTCAACCCTAATC (sugars l4 d10 l2, PS) | 46% | 47% | – | –
GCCACAACATCTATTT (sugars l4 d10 l2, PS) | 37% | 38% | – | –
GTACTTACACATCTAT (sugars l2 d10 l4, PS) | 45% | 26% | – | –
GTATTTACTCTTTACCT (sugars l3 d11 l3, PS) | 41% | 35% | – | –
GTTCTACTATACTTTC (sugars l4 d10 l2, PS) | 61% | 66% | – | –
GTTCTACTATACTTTCCT (sugars l1 d2 l1 d11 l3, PS) | – | – | 62% | –
GTTCTACTATACTTTCCT (sugars l1 d4 l1 d9 l3, PS) | – | – | 57% | –
GTTCTACTATACTTTCCT (sugars lddldddddddddlddll, PS) | – | – | 58% | –
GTTCTACTATACTTTCCT (sugars lddldlddddddddddll, PS) | – | – | 56% | –
GTTCTACTATACTTTCCT (sugars lddldldddddddlddll, PS) | – | – | 55% | –
GTTCTACTATACTTTCCTC (sugars lddddddddddddldldll, PS) | – | – | 56% | –
GTTTATACCCTTTCCAAT (sugars ldldldddddddddldll, PS) | – | – | 57% | –
GTTTCCATCTACTATTA (sugars l2 d11 l4, PS) | 60% | 75% | – | –
GTTTCCATCTACTATTAA (sugars llldldddddddllddll, PS) | – | – | 28% | –
GTTTCCATCTACTATTAAT (sugars lddddlddddddllddlll, PS) | – | – | 59% | –
GTTTCCATCTACTATTAAT (sugars ldldllddddddddddlll, PS) | – | – | 59% | –
TAAAATTATTTATACACCA (sugars l2 d3 l1 d7 l6, PS) | – | – | 47% | –
TAAAATTATTTATACACCA (sugars l5 d8 l2 d1 l3, PS) | – | – | 65% | –
TAAAATTATTTATACACCAT (sugars ldddlllddddddllldlll, PS) | – | – | 34% | –
TAAAATTATTTATACACCAT (sugars llldldldddddddlldlll, PS) | – | – | 21% | –
TAAAATTATTTATACACCAT (sugars lllldllddddddlllldll, PS) | – | – | -13% | –

Sequence | target mRNA inhibition (Human Neuronal Cell, 0.2 µM) | target mRNA inhibition (Human Neuronal Cell, 1 µM) | target mRNA inhibition (Human Neuronal Cell, 7.5 µM) | other results
TAAAGATCCCATCACTC (sugars l3 d11 l3, PS) | 44% | 50% | – | –
TAATCCTATTCCAACT (sugars l3 d10 l3, PS) | 16% | 17% | – | –
TACACAATCAACAACAAAT (sugars l4 d13 l2, PS) | 25% | 41% | – | –
TACACTTAATTATACTTC (sugars l2 d12 l4, PS) | 26% | 42% | – | –
TACACTTAATTATACTTCCA (sugars ldlddllddddddlddddll, PS) | – | – | 59% | –
TACACTTAATTATACTTCCA (sugars lldldlddddddddddddll, PS) | – | – | 60% | –
TACATCTCATACTTGCT (sugars l2 d11 l4, PS) | -18% | 2% | – | target mRNA inhibition (Human Neuronal Cell, 5 µM): 18%; target mRNA inhibition [1]: 95%
TACCTACATCTCATACT (sugars l2 d13 l2, PS) | -1% | 0% | – | target mRNA inhibition (Human Neuronal Cell, 5 µM): 11%; target mRNA inhibition [1]: 78.6%
TACCTACATCTCATACTT (sugars l4 d12 l2, PS) | -19% | 3% | – | target mRNA inhibition (Human Neuronal Cell, 5 µM): 7%; target mRNA inhibition [1]: 94.8%
TACTATCTTTGACATTC (sugars l4 d11 l2, PS) | 48% | 59% | – | –
TACTCTGCAATACACC (sugars l1 d1 l1 d10 l3, PS) | – | – | 60% | –
TACTCTGCAATACACC (sugars l1 d1 l1 d11 l2, PS) | – | – | 50% | –
TACTCTGCAATACACC (sugars l2 d2 l1 d9 l2, PS) | – | – | 61% | –
TACTCTGCAATACACC (sugars l2 d12 l2, PS) | – | – | 59% | –
TACTCTGCAATACACC (sugars l3 d11 l2, PS) | – | – | 55% | –
TACTCTGCAATACACCA (sugars l1 d1 l1 d12 l2, PS) | – | – | 55% | –
TACTCTGCAATACACCA (sugars l1 d10 l1 d3 l2, PS) | – | – | 59% | –
TACTCTGCAATACACCA (sugars l2 d10 l2 d1 l2, PS) | – | – | 60% | –
TATACACCATCATTATA (sugars l4 d11 l2, PS) | 41% | 60% | – | –
TATACCTTTCTTTAACCCTT (sugars ldddddldddddddddldll, PS) | – | – | 66% | –
